# Reference: publication PMC11928584, “H105A peptide eye drops promote photoreceptor survival in murine and human models of retinal degeneration” (Communications Medicine, 2025)
# Where a SMILES comes first, the peptide text is derived from it.
# Molecular target: T1, recombinant human PEDF-R[1–288] (Homo sapiens, UniProt Q96AD5)
# T1 construct: SUMOstar (N); His tag (N); made in house; host or cells: Escherichia coli Rosetta(DE3), co-transformed with pGro7 (groES-groEL)
# T1 sequence (Q96AD5 1-288): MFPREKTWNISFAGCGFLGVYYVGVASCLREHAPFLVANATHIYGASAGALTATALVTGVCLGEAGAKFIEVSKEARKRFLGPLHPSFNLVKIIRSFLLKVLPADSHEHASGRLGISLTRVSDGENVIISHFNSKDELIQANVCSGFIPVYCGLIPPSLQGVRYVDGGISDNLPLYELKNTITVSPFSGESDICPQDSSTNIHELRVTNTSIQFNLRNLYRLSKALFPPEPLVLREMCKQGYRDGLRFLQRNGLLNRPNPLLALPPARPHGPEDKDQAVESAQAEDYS
# Experiment: Phospholipase A2 activity assay (EnzChek)
# Format: biochemical
# Conditions: purified recombinant PEDF-R in the presence of peptides
# Source text: To obtain the PEDF-R protein, the following procedure was followed. For plasmid construction, the plasmid used for expression was pE-SUMOstar-PEDF-R[1–288] C-terminal TwinStrep tagged. This plasmid contained the coding sequence for the human PEDF-R open reading frame between positions 1 and 288. For transformation: The expression plasmid and pGro7(groES-groEL) were co-transformed into Escherichia coli Rosetta(DE3) to obtain colonies for recombinant protein expression[34],[35]. The transformed cells were plated on Luria-Bertani (LB) agar plate containing 10 μg/ml chloramphenicol and 100 µg/ml ampicillin followed by overnight incubation at 37 °C to obtain colonies. A total of 100 ml of LB media containing 10 μg/ml chloramphenicol and 100 µg/ml ampicillin was inoculated with a single colony and incubated at 37 °C with vigorous shaking overnight. Then, 1 liter of LB media containing 0.5 mg/ml L-(+) arabinose, 2% D-(+)-Glucose, 10 μg/ml chloramphenicol and 100 µg/ml ampicillin was inoculated with 2% of the overnight culture and incubated at 37 °C with vigorous shaking until the O.D.600 nm reached 0.5-0.6. […]
# Phospholipase A2 (PLA2) activity was determined using EnzChek™ Phospholipase A2 Assay Kit (Thermo Fisher Scientific, cat. E10217) according to the manufacturer’s instructions and as described before. […] Fluorescence emission was measured at 515 nm with excitation at 460 nm. […]
structure (smiles),measurement,value
CC[C@H](C)[C@H](NC(=O)[C@H](CC(C)C)NC(=O)[C@H](CC(=O)O)NC(=O)[C@H](Cc1ccc(O)cc1)NC(=O)[C@H](Cc1ccc(O)cc1)NC(=O)[C@H](CC(C)C)NC(=O)[C@H](C)NC(=O)[C@H](CCCNC(=N)N)NC(=O)[C@H](C)NC(=O)[C@@H](NC(=O)[C@@H](NC(=O)[C@H](CO)NC(=O)[C@H](CCC(=O)O)NC(=O)[C@@H](NC(=O)[C@H](CCCNC(=N)N)NC(=O)[C@@H](N)CCC(N)=O)[C@@H](C)O)[C@@H](C)CC)[C@@H](C)CC)C(=O)N[C@@H](CO)C(=O)O [H105A] (H-QRTESIIARALYYDLIS-OH),stimulation of PLA2 activity of PEDF-R,functional effectors of PEDF-R
